Source: PubChem BioAssay AID1053151 (Broad Institute, 2014)

How the values were obtained:
[1] = system: HepG2 secreted ApoB ELISA, 24 h; assay: ApoB secretion inhibition in hepatoma cells – cell-based, HepG2, ELISA, plate reader, cherry-pick, orthogonal assay for Trib1 inducer project, dose response (AID 1053151)
[2] = as above; settings: HepG2 secreted ApoB ELISA, 24 h, ApoB inhibition at active concentration, stronger effect = higher value

Compound	active concentration (lower = more potent) [1]	inhibition ([2]; at 0.02 µM)	inhibition ([2]; at 3.5 µM)
CN1C(=O)c2cc(NC(=O)c3ccc(C(F)(F)F)cc3)ccc2OC[C@@H]2O[C@H](CC(=O)NC3Cc4ccccc4C3)CC[C@@H]21	20 nM	99%	
CN1C(=O)c2cc(NC(=O)c3ccc(C(F)(F)F)cc3)ccc2OC[C@@H]2O[C@@H](CC(=O)NC3Cc4ccccc4C3)CC[C@@H]21	3500 nM		90%
